Assay [1] relates to RAW 264.7. The assay is described as follows: Inflammatory mediator mRNA expression (qRT-PCR) in unstimulated RAW cells. The format is cell-based. Conditions: 10 μM DAPT for 6 days, vs untreated cells. As to the method:
(§1) The aorta was isolated from experimental mice at day 28 of AngII infusion and immediately frozen in RNA-later (Ambion, Austin, Tex.). Abdominal aorta of equal length was cut from the abdominal region of ApoE^−/− and Notch1^+/−ApoE^−/− mice and RNA was extracted using RNAqueous kit (Ambion, Austin, Tex.). RAW cells (264.7) were obtained from ATCC (Manassas, Va.) and were cultured following the manufacturer's instructions. Naïve macrophages were collected from the peritoneal cavity of ApoE^−/− or Notch1^+/−ApoE^−/− mice by standard protocol [Hans et al., Cardiovasc. Pathol., 185:1894-902 (2011); Hans et al., Cardiovasc. Res., 78:429-439 (2008); Oumouna-Benachour et al., Circulation, 115:2442-2450 (2007)]. The isolated macrophages were cultured in RPMI containing 10% FCS for 3 days and were then treated with 100 nM LPS or diluent for 3 h in RPMI containing 1% FCS. Following treatment, the macrophages were washed with cold PBS and RNA was extracted using RNAeasy kit (Qiagen, Valencia, Calif.). cDNA was synthesized using SuperScript® VILO™ cDNA Synthesis Kit (Invitrogen, Carlsbad, Calif.) and subjected to qRT-PCR by SYBR Green RT-PCR kit (Applied Biosystems, Foster City Calif.) using Applied Biosystems 7500 Fast Real-Time PCR System (Foster City Calif.). qRT-PCR was performed in triplicate and fold change determined by standardization to 18S rRNA. Results were normalized to the controls. […]

Assay [2] relates to RAW 264.7. The assay is described as follows: Inflammatory mediator mRNA expression (qRT-PCR) in LPS-stimulated RAW cells. The format is cell-based. The note with it: pre-treatment with 10 μM DAPT, RAW cells with 100 ng/ml LPS for 3 hours, vs non-DAPT treated cells. The procedure: as §1
For orientation: Quantitative PCR measures a nucleic acid by following its amplification.

Assay [3] concerns AngII-induced mouse model of AAA. The assay is described as follows: Prophylactic Notch inhibition in AngII-induced mouse model of AAA. The note with it: ApoE−/− mice. The format is in vivo. As to the method: Mini osmotic pumps (Model 2004; Alzet, Cupertino, Calif.) containing AngII (1000 ng/min/kg) or saline were implanted subcutaneously in the neck region of anesthetized mice following standard protocol [Daugherty et al., J. Clin. Invest., 105:1605-1612 (2000)]. Three independent experiments were performed to determine the effect of Notch1 haploinsufficiency on the formation of AAA. In one of these three experiments the effects of pharmacological inhibition of Notch were tested on AAA formation. Mice (n=3) were injected with a Notch inhibitor, DAPT (10 mg/kg dissolved in 10% ethanol, 90% corn oil), three times a week subcutaneously starting one week before the implantation of osmotic pump and continuing for an additional 28 days until the mice were sacrificed, as explained for FIG. 6. [Loane et al., Nat. Med., 15:377-379 (2009); Lanz et al., J. Pharmacol. Exp. Ther., 305:864-871 (2003); Sjolund et al., J. Clin. Invest., 118:217-228 (2008)].
Two dimensional (B-mode) in vivo ultrasound images were obtained at weekly intervals after the implantation of osmotic pumps using a VisualSonics Vevo2100 imaging system (Ontario, Canada) with a mechanical transducer (MS400). After 28 days, the animals were euthanized and the aortas were dissected and fixed in 10% formalin. Minimum and maximum diameters of each vessel were determined by digitalized measurement (Zeiss AxioImager upright microscope with brightfield).
Histological examination of the abdominal aorta of the AngII and saline treated mutant mice was performed. The abdominal region of the aorta were embedded in paraffin and serial sections ([…]) were obtained. Sections were stained with hematoxylin and eosin (HE), elastin staining (Sigma, St. Louis, Mo.), and terminal deoxynucleotidyl transferasemediated dUTP nick-end labeling (TUNEL) staining (Roche, Indianapolis, Ind.). Statistical comparisons were performed using either Student's t-test or one-way ANOVA followed by the Bonferroni's Multiple Comparison Test. GraphPad PRISM V5.0 (San Diego, Calif.) was used for these comparisons and a P value<0.05 was considered significant. […]

For assay [4] the test system is unchanged. The assay is described as follows: Therapeutic Notch inhibition (start day 3 or day 8) in AngII-induced mouse model of AAA, Example 7. The format is in vivo. Conditions: ApoE−/− mice. The source says: In the study, mice were divided into four groups: • ApoE^−/− mice with AngII plus vehicle for 28 days (n=6); • ApoE^−/− mice with AngII plus DAPT (7 days prior to AngII infusion, n=6); • ApoE^−/− mice with AngII plus DAPT (3 days after AngII infusion, n=9); and • ApoE^−/− mice with AngII plus DAPT (8 days after AngII infusion, n=9).
These time periods were carefully selected to determine the effect of Notch inhibition on the formation of AAA before the onset of disease (−7 days), at day 3 (onset of inflammation) and day 8 (elastin degradation and cellular remodeling).
NOTCH inhibitor (DAPT; 10 mg/kg; […] in corn oil) given at day 3 and day 8 after the AngII infusion reduced the progression of active AAA in the mouse model.

For assay [5] the test system is unchanged. The assay is described as follows: Progression of active AAA in AngII-induced mouse model, Example 8. The format is in vivo. As to the method:
Active aneurysm was introduced in ApoE^−/− mice (n=36) by administering AngII. DAPT (10 mg/kg; 3 times a week) was injected in these mice starting either 3 days (Group II; n=12) or 8 days (Group III; n=12) after AngII infusion. Group I (n=12) received vehicle (10% alcohol in corn oil) only. The time periods were chosen so that a small aortic dilation is established before DAPT is administered.
The increased collagen content in the aorta of ApoE^−/− mice in response to AngII provides stability to the tissue against sudden rupture.

[6] abbreviates: AngII infusion 28 days, DAPT 10 mg/kg three times a week from one week before AngII, vs untreated ApoE−/− mice.

SMILES strings stand for the structures. Entries after “also recorded” stand apart in the source; their conditions may differ.

Consider `C[C@H](NC(=O)Cc1cc(F)cc(F)c1)C(=O)N[C@H](C(=O)OC(C)(C)C)c1ccccc1` [DAPT, N—[N-(3,5-Difluorophenacetyl)-L-alanyl]-S-phenylglycine t-butyl ester], for which the “expression of MCP-1, IL-6, TNF-α, CXCL-10, VEGF, iNOS, ICAM-1, and VCAM-1” value with RAW 264.7 [1] is “Decreased expression; also recorded: significantly decreased”. In addition, the “expression of MCP-1, IL-6, TNF-α, CXCL-10, VEGF, iNOS, and ICAM-1” value with RAW 264.7 [2] was “Decreased expression; also recorded: significantly reduced”. Further, in assay [3] (setting [6]), the aortic diameter entry was “statistically significant reduction” and the “incidence of AAA” value is recorded as “statistically significant reduction”. The “histologic analysis of the aorta” value in assay [3] (AngII infusion, DAPT 10 mg/kg prophylactic, vs untreated mice) is recorded as “no evidence of abdominal aneurysm; also recorded: normal aortic wall architecture without infiltration of inflammatory cells”. Also, in assay [4] (AngII, DAPT treatment started at day 3 and day 8), the “maximal abdominal aortic width at day 28” value is on record as “significantly decreased”. For the same molecule, the “progression of active AAA” value in assay [4] (DAPT 10 mg/kg in corn oil given at day 3 and day 8 after AngII infusion) is on record as “reduced”. Moreover, in assay [5] (ApoE−/− mice, AngII, DAPT 10 mg/kg 3 times a week from day 3 (Group II) or day 8 (Group III), vs vehicle, echocardiography, p<0.05), the “luminal expansion of the abdominal aorta” value is “significantly reduced”. Moreover, in assay [5] (Group II and Group III vs Group I (vehicle), quantitative real-time PCR and immunohistochemistry), the “expression of MMP2 and MMP9 in the aortas” value is given as “decreased”. For the same molecule, in assay [5] (Group III (DAPT from day 8)), the “monocyte chemotactic protein-1” value is “not associated with increased monocyte chemotactic protein-1”; the “newly synthesized tropoelastin and collagen staining” value is given as “increased expression”. The “macrophage content (CD-68)” value in assay [5] (Group III (DAPT from day 8) vs Group I (vehicle), marginal increase vs Group II) is on record as “significantly less than Group I”. Moreover, the “elastin fragmentation and aortic remodeling” value in assay [5] (both groups (DAPT from day 3 or day 8), histology) is listed as “prevented”.

The values above are taken from patent US9629891B2, “Products and methods for aortic abdominal aneurysm” (NATIONWIDE CHILDREN'S HOSPITAL, INC., priority 2011, dated 2017).
